Each structure is given as a SMILES string.

Sequence of human Cat S (P25774 115-331): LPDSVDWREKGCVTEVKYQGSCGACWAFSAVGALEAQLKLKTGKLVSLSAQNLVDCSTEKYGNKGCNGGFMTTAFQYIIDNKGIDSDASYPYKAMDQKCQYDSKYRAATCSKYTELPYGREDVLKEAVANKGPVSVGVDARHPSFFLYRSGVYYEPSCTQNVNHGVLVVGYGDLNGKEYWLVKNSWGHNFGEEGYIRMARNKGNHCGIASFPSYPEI

For this test, the target named is human Cat S (Homo sapiens (Human), UniProt P25774). Kind of test: Cathepsin enzyme inhibition assay (fluorogenic peptide substrate cleavage). In kind it is biochemical. Conditions: human Cathepsin S 1 nM, substrate Z-Val-Val-Arg-AMC 20 μM, pH 6.5; read-out: Ic50 CatS: human. The method, then:
Cathepsin Enzyme Inhibition Assay
Enzyme activity is measured by observing the increase in fluorescence intensity caused by cleavage of a peptide substrate containing a fluorophore whose emission is quenched in the intact peptide. • Assay buffer: 100 mM potassium phosphate pH 6.5, EDTA-Na 5 mM, Triton X-100 0.001%, DTT 5 mM. • Enzymes (all at 1 nM): human and mouse Cathepsin S, Cat K, Cat B, Cat L. • Substrate (20 μM): Z-Val-Val-Arg-AMC, except for Cat K which uses Z-Leu-Arg-AMC (both from Bachem). • Z=Benzyloxycarbonyl. • AMC=7-Amino-4-Methyl-Coumarin. • DTT=dithiothreitol. • Final volume: 100 μL. • Excitation 360 nm, Emission 465 nm.
Enzyme is added to the substance dilutions in 96-well microtitre plates and the reaction is started with substrate. Fluorescence emission is measured over 20 minutes, during which time a linear increase is observed in the absence of inhibitor. IC50 are calculated by standard methods.
Inhibition of human Cat S, mouse Cat S, human Cat K, human Cat B, human Cat L and mouse Cat L have been measured separately. The results obtained for human Cat S for representative compounds of the invention are expressed in the following table in μM.
For `N#CC1(NC(=O)[C@@H]2C[C@@H](S(=O)(=O)c3ccccc3Cl)CN2C(=O)C2(N3CCN(C(=O)C(F)(F)F)CC3)CC2)CC1` [Example 35, (2S,4R)-4-(2-Chlorophenylsulfonyl)-N-(1-cyanocyclopropyl)-1-(1-(4-(2,2,2-trifluoroacetyl)piperazin-1-yl)cyclopropanecarbonyl)pyrrolidine-2-carboxamide], the IC50 turned out to be 3.7 nM. With `CCOC(=O)N1CCC(N2CCC2C(=O)N2C[C@H](S(=O)(=O)c3ccccc3Cl)C[C@H]2C(=O)NC2(C#N)CC2)CC1` (stereo partly drawn) [Example 11, Ethyl 4-(2-((2S,4R)-4-(2-chlorophenylsulfonyl)-2-(1-cyanocyclopropylcarbamoyl)pyrrolidine-1-carbonyl)azetidin-1-yl)piperidine-1-carboxylate], the IC50 came out at 1.7 nM. Consider `N#CC1(NC(=O)[C@@H]2C[C@@H](S(=O)(=O)c3ccccc3Cl)CN2C(=O)C2(N3CCNCC3)CC2)CC1` [Example 30, (2S,4R)-4-(2-Chlorophenylsulfonyl)-N-(1-cyanocyclopropyl)-1-(1-(piperazin-1-yl)cyclopropanecarbonyl)pyrrolidine-2-carboxamide], for which the IC50 is 4.2 nM. For the compound `CCOC(=O)N1CCC(N2CCC2C(=O)N2C[C@H](Sc3ccc(Cl)cc3)C[C@H]2C(=O)NC2(C#N)CC2)CC1` (stereo partly drawn) [Example 15, Ethyl 4-(2-((2S,4R)-4-(4-chlorophenylthio)-2-(1-cyanocyclopropylcarbamoyl)pyrrolidine-1-carbonyl)azetidin-1-yl)piperidine-1-carboxylate], the 50% inhibitory concentration (IC50) came to 121 nM. Regarding `Cc1ccc(S(=O)(=O)[C@@H]2C[C@@H](C(=O)NC3(C#N)CC3)N(C(=O)C3(N4CCCCC4)CC3)C2)cc1` [Example 44, (2S,4R)-N-(1-Cyanocyclopropyl)-1-(1-(piperidin-1-yl)cyclopropanecarbonyl)-4-tosylpyrrolidine-2-carboxamide], the IC50 turned out to be 0.4 nM. Next, `N#CC1(NC(=O)[C@@H]2C[C@@H](S(=O)(=O)c3ccc(F)cc3Cl)CN2C(=O)C2(N3CCCCC3)CC2)CC1` [Example 42, (2S,4R)-4-(2-Chloro-4-fluorophenylsulfonyl)-N-(1-cyanocyclopropyl)-1-(1-(piperidin-1-yl)cyclopropanecarbonyl)pyrrolidine-2-carboxamide]: 0.4 nM; `CCOC(=O)N1CCC(N2CCC2C(=O)N2C[C@H](Sc3cccc(C(F)(F)F)c3)C[C@H]2C(=O)NC2(C#N)CC2)CC1` (stereo partly drawn) [Example 18, Ethyl 4-(2-((2S,4R)-2-(1-cyanocyclopropylcarbamoyl)-4-(3-(trifluoromethyl)phenylthio)pyrrolidine-1-carbonyl)azetidin-1-yl)piperidine-1-carboxylate]: 8 nM. For the compound `CCOC(=O)N1CCC(N2CCC2C(=O)N2C[C@H](S(=O)(=O)c3ccc(Cl)cc3)C[C@H]2C(=O)NC2(C#N)CC2)CC1` (stereo partly drawn) [Example 22, Ethyl 4-(2-((2S,4R)-4-(4-chlorophenylsulfonyl)-2-(1-cyanocyclopropylcarbamoyl)pyrrolidine-1-carbonyl)azetidin-1-yl)piperidine-1-carboxylate], the IC50 came out at 2.8 nM. As for `CCOC(=O)N1CCC(N2CCC2C(=O)N2C[C@H](Sc3ccccc3OC(F)(F)F)C[C@H]2C(=O)NC2(C#N)CC2)CC1` (stereo partly drawn) [Example 17, Ethyl 4-(2-((2S,4R)-2-(1-cyanocyclopropylcarbamoyl)-4-(2-(trifluoromethoxy)phenylthio)pyrrolidine-1-carbonyl)azetidin-1-yl)piperidine-1-carboxylate], the IC50 amounted to 65.5 nM. Consider `CC1CCCCN1C1(C(=O)N2C[C@H](S(=O)(=O)c3ccccc3Cl)C[C@H]2C(=O)NC2(C#N)CC2)CC1` (stereo partly drawn) [Example 41, (2S,4R)-4-(2-Chlorophenylsulfonyl)-N-(1-cyanocyclopropyl)-1-(1-(2-methylpiperidin-1-yl)cyclopropanecarbonyl)pyrrolidine-2-carboxamide], for which the IC50 came to 0.9 nM.
